Earlier results in patent US20130028962A1, “Triggered Cargo Release from Nanoparticle Stabilized Liposomes” (THE REGENTS OF THE UNIVERSITY OF CALIFORNIA, priority 2010, published 2013).

System: MRSA bacteria
Settings: against MRSA bacteria

## CN[C@H](CC(C)C)C(=O)N[C@H]1C(=O)N[C@@H](CC(N)=O)C(=O)N[C@H]2C(=O)N[C@H]3C(=O)N[C@H](C(=O)N[C@H](C(=O)O)c4cc(O)cc(O)c4-c4cc3ccc4O)[C@H](O)c3ccc(c(Cl)c3)Oc3cc2cc(c3O[C@@H]2O[C@H](CO)[C@@H](O)[C@H](O)[C@H]2O[C@H]2C[C@](C)(N)[C@H](O)[C@H](C)O2)Oc2ccc(cc2Cl)[C@H]1O [vancomycin]
  minimal inhibitory concentration (MIC): about 2 μg/mL
